From patent US8785499B2 (priority 2009, dated 2014)
pIC50: −log10 of the molar value.

Assays:
ecNadD = ecNadD (Escherichia coli (strain K12), UniProt P0A752); assay: biochemical; assay type: biochemical; conditions: for inhibition at 100 µM: read-out: INHIBITION (%) E. coli; for pIC50: IC50 ecNadD
baNadD = baNadD (Bacillus anthracis, UniProt C3L5T6); assay: biochemical; assay type: biochemical; conditions: for inhibition at 50 µM: read-out: INHIBITION (%) B. anthracis; for pIC50: IC50 baNadD
baNadD, sequence (C3L5T6 whole entry, looked up): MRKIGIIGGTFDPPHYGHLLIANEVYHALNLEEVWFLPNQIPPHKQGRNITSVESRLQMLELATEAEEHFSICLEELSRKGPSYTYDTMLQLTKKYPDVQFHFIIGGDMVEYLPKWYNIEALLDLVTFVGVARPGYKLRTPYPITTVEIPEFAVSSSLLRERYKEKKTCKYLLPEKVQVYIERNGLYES

Work on Cc1c(Cl)cccc1N/C=C1\C(=O)Nc2ccccc21 [15_13] yielded an inhibition at 100 µM (ecNadD) of 12% and an inhibition at 50 µM (baNadD) of 36%.
Cc1ccc(N/C=C2\C(=O)Nc3ccccc32)cc1C [15_14] was tested, and the pIC50 (ecNadD) was 4.06, the inhibition at 100 µM (ecNadD) was 12% and the pIC50 (baNadD) was 4.13. The inhibition at 50 µM (baNadD) was 70%.
With O=C1Nc2ccccc2/C1=C/Nc1cccnc1 [15_15] the inhibition at 100 µM (ecNadD) was 12% and the inhibition at 50 µM (baNadD) was 10%.
For O=C1Nc2ccccc2/C1=C/NCc1ccccc1 [15_16], the inhibition at 100 µM (ecNadD) was 11% and the inhibition at 50 µM (baNadD) was 6%.
O=C1Nc2ccccc2/C1=C/Nc1ccccc1F [15_17] showed an inhibition at 100 µM (ecNadD) of 11% and an inhibition at 50 µM (baNadD) of 22%.
With CSc1cccc(N/C=C2\C(=O)Nc3ccccc32)c1 [15_18] the inhibition at 100 µM (ecNadD) was 11% and the inhibition at 50 µM (baNadD) was 24%.
Compound Cc1ccc(N/C=C2\C(=O)Nc3ccccc32)c(Cl)c1 [15_19] has an inhibition at 100 µM (ecNadD) of 11% and an inhibition at 50 µM (baNadD) of 14%.
In the case of Cc1cccc(N/C=C2\C(=O)Nc3ccccc32)n1 [15_20], the inhibition at 100 µM (ecNadD) was 11% and the inhibition at 50 µM (baNadD) was 8%.
Cc1cc(C)c(N/C=C2\C(=O)Nc3ccccc32)c(C)c1 [15_21] was tested, and the inhibition at 100 µM (ecNadD) was 10% and the inhibition at 50 µM (baNadD) was 30%.
With O=C1Nc2ccccc2/C1=C/Nc1ccc(F)cc1F [15_22] the inhibition at 100 µM (ecNadD) was 10% and the inhibition at 50 µM (baNadD) was 28%.
In the case of Cc1cc(C)cc(N/C=C2\C(=O)Nc3ccccc32)c1 [15_23], the inhibition at 100 µM (ecNadD) was 10% and the inhibition at 50 µM (baNadD) was 32%.
CCc1ccc(N/C=C2\C(=O)Nc3ccccc32)cc1 [15_24] showed an inhibition at 100 µM (ecNadD) of 9% and an inhibition at 50 µM (baNadD) of 17%.
COc1ccc(N/C=C2\C(=O)Nc3ccccc32)cc1 [15_25] gave an inhibition at 100 µM (ecNadD) of 9% and an inhibition at 50 µM (baNadD) of 16%.
O=C1Nc2ccccc2/C1=C/Nc1ccccc1Br [15_26] gave an inhibition at 100 µM (ecNadD) of 8% and an inhibition at 50 µM (baNadD) of 8%.
CCc1ccccc1N/C=C1\C(=O)Nc2ccccc21 [15_27] was tested, and the pIC50 (ecNadD) was under 3.70, the inhibition at 100 µM (ecNadD) was 8% and the pIC50 (baNadD) was under 3.70. It also gave an inhibition at 50 µM (baNadD) of 42%.
Compound Cc1cccc(N/C=C2\C(=O)Nc3ccccc32)c1 [15_28] has a pIC50 (ecNadD) of under 3.70, an inhibition at 100 µM (ecNadD) of 8% and a pIC50 (baNadD) of under 3.70. The inhibition at 50 µM (baNadD) was 24%.
Compound Cc1ccc(N/C=C2\C(=O)Nc3ccccc32)cc1 [15_29] has an inhibition at 100 µM (ecNadD) of 7% and an inhibition at 50 µM (baNadD) of 38%.
CC(C)c1ccc(N/C=C2\C(=O)Nc3ccccc32)cc1 [15_30] showed an inhibition at 100 µM (ecNadD) of 7% and an inhibition at 50 µM (baNadD) of 42%.
Cc1ccccc1N/C=C1\C(=O)Nc2ccccc21 [15_31] was tested, and the pIC50 (ecNadD) was 3.93, the inhibition at 100 µM (ecNadD) was 7% and the pIC50 (baNadD) was 3.95. It also gave an inhibition at 50 µM (baNadD) of 27%.
O=C1Nc2ccccc2/C1=C/NCCc1ccccc1 [15_32] showed an inhibition at 100 µM (ecNadD) of 7% and an inhibition at 50 µM (baNadD) of 4%.
Work on O=C1Nc2ccccc2/C1=C/NC1CCCCC1 [15_33] yielded an inhibition at 100 µM (ecNadD) of 6% and an inhibition at 50 µM (baNadD) of 15%.
In the case of CC(C)N/C=C1\C(=O)Nc2ccccc21 [15_34], the inhibition at 100 µM (ecNadD) was 4% and the inhibition at 50 µM (baNadD) was 9%.
CC(=O)c1cccc(N/C=C2\C(=O)Nc3ccccc32)c1 [15_35] gave an inhibition at 100 µM (ecNadD) of 4% and an inhibition at 50 µM (baNadD) of 19%.
For Cc1cccc(C)c1N/C=C1\C(=O)Nc2ccccc21 [15_36], the inhibition at 100 µM (ecNadD) was 4% and the inhibition at 50 µM (baNadD) was 11%.
With COc1cccc(N/C=C2\C(=O)Nc3ccccc32)c1 [15_37] the inhibition at 100 µM (ecNadD) was 4% and the inhibition at 50 µM (baNadD) was 1%.
With Cc1ccc(CN/C=C2\C(=O)Nc3ccccc32)cc1 [15_38] the inhibition at 100 µM (ecNadD) was 3% and the inhibition at 50 µM (baNadD) was 17%.
In the case of CC(N/C=C1\C(=O)Nc2ccccc21)c1ccccc1 (stereo not drawn) [15_39], the inhibition at 100 µM (ecNadD) was 3% and the inhibition at 50 µM (baNadD) was 18%.
For O=C1Nc2ccccc2/C1=C/Nc1ccccc1C(=O)O [15_40], the inhibition at 100 µM (ecNadD) was 1% and the inhibition at 50 µM (baNadD) was 0%.
With CCc1cccc(C)c1N/C=C1\C(=O)Nc2ccccc21 [15_41] the inhibition at 100 µM (ecNadD) was 0% and the inhibition at 50 µM (baNadD) was 13%.
CC(=O)c1ccc(N/C=C2/C(=O)Nc3ccccc32)cc1 [15_42] was tested, and the inhibition at 100 µM (ecNadD) was 0% and the inhibition at 50 µM (baNadD) was 11%.
O=C(CCC(=O)Nc1ccc(I)cc1)N/N=C/c1c2ccccc2cc2ccccc12 [compound 001] gave a pIC50 (ecNadD) of 4.82, an inhibition at 100 µM (ecNadD) of 79% and a pIC50 (baNadD) of 4.68. It also gave an inhibition at 50 µM (baNadD) of 88%.
With S=C(N/N=C/c1ccccc1Cl)Nc1cc(Cl)ccc1Cl [compound 002] the “[…]. coli” value (ecNadD) was 76% and the “[…]. anthracis” value (baNadD) was 85%.
With Nc1c(C(=O)Nc2cccc(Cl)c2Cl)sc2nc(-c3cccs3)ccc12 [compound 003] the inhibition at 100 µM (ecNadD) was 73% and the inhibition at 50 µM (baNadD) was 40%.
For O=C(O)c1cc([N+](=O)[O-])ccc1Sc1cccs1 [compound 005], the “[…]. coli” value (ecNadD) was 71% and the “[…]. anthracis” value (baNadD) was 44%.
